Measured values from patent publication US10329258B2, “CGAS in systemic lupus erythematosus (SLE)” (UNIVERSITY OF WASHINGTON, priority 2015, dated 2019).
“Also recorded” adds a separate entry of the source. Read-outs that look alike come from different tables or passages of the source.

How the values were obtained:
cGAS = target: T1, cGAS (Homo sapiens, UniProt Q8N884); assay: cGAS activity assay: cGAMP production quantified by TLC (IC50 Enzyme Assay); assay type: biochemical; details: for inhibitory activity on cGAMP production, in words: TLC, FIG. 2C
T1 construct: made in house; host or cells: E. coli Rosetta BL21 pLysS
Method: HCQ belongs to a family of antimalarial drugs that share the structure of aminoquinolines. To rapidly screen these antimalarial drugs for their ability to interfere with cGAS activation by ds-DNA, we performed dose titration experiments with drug and quantified cGAMP production using thin layer chromatography (TLC) (FIG. 2A). Reactions were performed in triplicate and normalized to no-inhibitor controls and fit by non-linear regression using Prism […]™ to determine the IC50 of each compound. Each compound yielded dose-response curves similar to HCQ but with different inhibitory activities (FIG. 2B). […] Strikingly, the computational predicted binding affinities of these anti-malaria drugs inversely correlated with the IC50 of anti-malarial drugs, validating the prediction of our computational analysis (FIG. 2D).
Initial characterization of enzyme activity was monitored in the presence of 250 μM ATP, 250 μM GTP, 0-500 μg/mL herring testes DNA, 1.4 μM cGAS, 3.3 nM ^32P-γ-ATP in a buffer composed of 40 mM Tris, 250 mM NaCl, 10 mM MgCl2, pH 7.5. Reactions were incubated for 1 hr at room temperature and subsequently spotted on PEI-cellulose TLC plates and developed using a solvent composition 1:1.5 [v/v] saturated NH4SO4 and 1.5 M KH2PO4 [pH 3.6]. For inhibition assays, compounds were characterized in the presence of the above reaction contents at fixed 100 μg/mL htDNA. TLC plates were exposed to a phosphor-storage screen and imaged using a TYPHOON™ imaging system. (See FIGS. 7-16).
cGAS activity was monitored in the presence of 250 μM ATP, 250 μM GTP, 0-500 μg/ml herring testes DNA. 1.4 μM cGAS. and 3.3 nM [^32P]-ATP in Tris buffer (pH 7.5). After incubation for 1 h at room temperature, samples were spotted on PEI-cellulose Thin Layer Chromatograph (TLC) plates, and developed using a solvent composed of 1:1.5 [v/v] saturated NH4SO4 and 1.5 M KH2PO4 [pH 3.6]. For inhibition assays, compounds were characterized in the presence of the above reaction contents at fixed 100 μg/ml HT DNA. TLC plates were exposed to a phosphor-storage screen and imaged using a TYPHOOON™ imaging system. (FIG. 7).
Thin Layer Chromatograph (TLC) assay was used for the quantification of cGAS inhibition by compounds X5/X6/X7. Reactions were normalized to no-inhibitor controls and fit by non-linear regression using Prizm […]™ to determine the IC50 of each compound. (FIG. 7).

[1] = test system: IFNb production by THP1 cells; assay: IFNb expression by QPCR in THP1 cells transfected with herring testis DNA; assay type: cell-based; details: for IC50: Homo sapiens, read-out: IC50 of inhibition of IFNb production by THP1 cells; for inhibition of IFNb production, effectiveness in words: THP1 cells transfected with DNA, compared with Quinacrine, AMCA, HCQ, Chloroquine
Description: Systemic Lupus Erythematosus (SLE) is strongly associated with increased expression of type I interferon (IFN-I) (Elkon, 2012). Both genetic as well as experimental studies indicate that IFN-I plays a central role in this disease (Lovgren, 2006) (Niewold, 2007). To determine the physiological relevance of our computational analysis and in vitro observance, we examined whether antimalarial drugs could inhibit IFNb production within the cell. […] Using this approach, we transfected THP1 cells with DNA in the presence or absence of antimalarial compounds and quantified IFNb expression by QPCR.
THP1 cells (0.2×10^6) were transfected with 0.5 ug herring testis DNA using Lipofectamine 2000 (Invitrogen) according to the manufacture's instruction. Before transfection, THP1 cells were incubated with different concentration of Hydroxychloroquine or other antimalarial drugs (100, 50, 25, 12.5 μM) for 5 minutes. Cells were stimulated for 16 hours and then harvested for RNA extraction.
Total RNA was isolated from THP1 cells using the RNeasy mini kit (Qiagen, Valencia, Calif.). cDNA was synthesized using 100 ng RNA with the high-capacity cDNA RT-KIT™ using random primers (Applied Biosystems, Foster City, Calif.). Reactions in duplicate were run on an ABI STEPONE PLUS™ using the primers from Qiagen (primer catalog number): a two-stage cycle of 95° C. for 15 s and 60° C. for 1 min was repeated for 40 cycles followed by a dissociation stage. Threshold cycle values were set as a constant threshold at 0.2, and fold changes in gene expression were then calculated using the 2^−ΔΔ^CT method.

dsDNA/cGAS complex = target: T2, dsDNA/cGAS complex (Homo sapiens, UniProt Q8N884); assay: Electrophoretic mobility shift assay (EMSA) of dsDNA (ISD) binding to cGAS; details: 0.2 μM ISD, 1.5 μM cGAS, HCQ 0.075~5 mM
T2 construct: made in house; host or cells: E. coli Rosetta BL21 pLysS
Description: To determine whether these anti-malarial drugs could inhibit DNA binding to cGAS in vitro, we performed DNA binding studies by the electrophoretic mobility shift assay (EMSA). As previously shown, addition of increasing concentrations of cGAS to a constant concentration of ds DNA (ISD), results in the protein retarding migration of ISD on the gel (‘gel shift’) and less free DNA (FIG. 1, left panel). To test whether HCQ as a model antimalarial could attenuate the gel shift, we used constant concentrations of both ISD and cGAS (FIG. 1, right panel) in the presence of increasing concentrations of HCQ. As shown, increasing the concentration of HCQ reduced the gel shift caused by the formation of dsDNA/cGAS complexes and led to increasing free DNA at the bottom of the gel. […] Inhibition of formation of dsDNA/cGAS higher order complexes by antimalarial drugs are especially interesting and important since cGAS is activated by dsDNA induced oligomerization and dsDNA/cGAS complex formation is required for cGAS activation.
Electrophoretic mobility shift assay (EMSAs) were performed to measure the DNA-binding ability with or without HCQ in vitro. […] The mixtures were resolved on 1% agarose gel using 1×TBE electrophoresis buffer of at constant voltage of 100 V. The gel was analyzed by using a fluorescence-based EMSA kit (Molecular Probes) according to the manufacturer's protocol. […]

STING = STING (Homo sapiens, UniProt Q86WV6); assay: Binding of 32P-c-di-AMP by STING in the presence of HCQ; details: 32P-c-di-AMP (2 nM), STING (170 μM), different HCQ concentrations
THP1 cells = assay: PolyIC Lipofectamine transfection of THP1 cells, IL-1b by ELISA; assay type: cell-based; details: PolyIC transfected THP1 cells, different concentration of HCQ
Description: PolyIC was transfected by Lipofectamine to THP1 cells with different concentration of HCQ.

3 cell lines = assay: Toxicity, average of 3 cell lines @ 50% cell death; assay type: cell-based
[2] = cGAS, fixed 100 μg/mL herring testes DNA, TLC of cGAMP, read-out: IC50 Enzyme Assay
[3] = THP-1, THP1 cells transfected with herring testis DNA, 16 hours, QPCR

T2 sequence (Q8N884 whole entry, species assumed, one chain of several): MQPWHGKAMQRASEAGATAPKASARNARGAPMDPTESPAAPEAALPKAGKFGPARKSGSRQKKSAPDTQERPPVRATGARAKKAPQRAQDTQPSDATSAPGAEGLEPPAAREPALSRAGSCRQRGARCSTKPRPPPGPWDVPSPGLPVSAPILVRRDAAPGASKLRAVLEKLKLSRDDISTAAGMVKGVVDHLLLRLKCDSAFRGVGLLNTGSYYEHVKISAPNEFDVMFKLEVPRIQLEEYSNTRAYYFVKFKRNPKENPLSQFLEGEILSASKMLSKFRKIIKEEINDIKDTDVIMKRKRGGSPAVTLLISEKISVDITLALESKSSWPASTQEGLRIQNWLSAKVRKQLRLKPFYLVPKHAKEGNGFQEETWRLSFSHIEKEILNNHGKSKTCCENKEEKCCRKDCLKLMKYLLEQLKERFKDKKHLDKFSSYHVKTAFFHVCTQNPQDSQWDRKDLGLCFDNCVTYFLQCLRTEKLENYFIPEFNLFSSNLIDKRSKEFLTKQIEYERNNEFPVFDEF
T1 sequence (Q8N884 whole entry, species assumed): as the sequence (Q8N884 whole entry, species assumed, one chain of several) above
Sequence of STING (Q86WV6 whole entry H232R, species assumed): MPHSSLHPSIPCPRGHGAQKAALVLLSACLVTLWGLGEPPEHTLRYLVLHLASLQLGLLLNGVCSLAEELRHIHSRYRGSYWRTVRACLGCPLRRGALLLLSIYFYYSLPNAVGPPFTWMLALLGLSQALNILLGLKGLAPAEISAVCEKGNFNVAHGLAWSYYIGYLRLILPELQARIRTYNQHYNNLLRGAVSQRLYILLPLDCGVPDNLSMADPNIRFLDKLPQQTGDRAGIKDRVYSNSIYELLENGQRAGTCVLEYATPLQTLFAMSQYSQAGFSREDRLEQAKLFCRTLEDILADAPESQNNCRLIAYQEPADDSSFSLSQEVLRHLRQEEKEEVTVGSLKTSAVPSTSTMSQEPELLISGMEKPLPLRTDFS

Row | Structure (SMILES) | IC50 (cGAS; [2]) [µM] | inhibitory activity on cGAMP production, in words (cGAS) | other results
1 | COc1ccc2nc3cc(N)ccc3c(N(C)CCCN(C)Cc3ccco3)c2c1 [compound 15, 9-(N-furfuryl-N-methyl-N′-methyl-1′,3′-propanediamine)-3-amino-7-methoxyacridine] | 35 |  | 
2 | CCN(CCO)CCCC(C)Nc1ccnc2cc(Cl)ccc12 (stereo not drawn) [HCQ, hydroxychloroquine] |  | intermediate inhibitory activities | IC50 [1, 3]: 3 to 25 µM; effect on dsDNA/cGAS binding (gel shift) (dsDNA/cGAS complex): blocked dsDNA/cGAS binding; also recorded: inhibits the DNA binding to cGAS; effect on c-di-AMP binding to STING (STING): not c-di-AMP to STING; effect on Lipofectamine transfection efficiency (IL-1b production) (THP1 cells): did not interfere with the Lipofectamine transfection efficiency
3 | C=C[C@H]1CN2CC[C@H]1C[C@H]2[C@H](O)c1ccnc2ccc(OC)cc12 [compound 5, Quinine] | 2000 | very low inhibitory activity | inhibition of IFNb production, effectiveness in words [1]: less effective by about one log order
4 | CCN(CC)CCCC(C)Nc1ccnc2cc(Cl)ccc12 (stereo not drawn) [compound 2, Chloroquine] | 850 | intermediate inhibitory activities | IC50 ([1]; THP-1, 16 h): 3 to 25 µM
5 | O=[N+]([O-])c1cccc(Nc2c3ccccc3nc3ccccc23)c1 [compound 11] | > 650 |  | 
6 | O=C(O)[C@H](Cc1c[nH]c2ccccc12)Nc1c2ccccc2nc2ccccc12 [compound 9] | > 650 |  | 
7 | CCN(CCO)CCCC(C)Nc1ccnc2cc(Cl)ccc12 (stereo not drawn) [compound 1, hydroxychloroquine] | 350 |  | 
8 | CCOC(=O)c1ccc(Nc2c3ccccc3nc3ccccc23)cc1 [compound 10] | > 650 |  | 
9 | COc1ccc2nc3cc(N)ccc3c(N(C)CCCN(C)Cc3ccccc3)c2c1 [compound 13, 9-(N-benzyl-N-methyl-N′-methyl-1′,3′-propanediamine)-3-amino-7-methoxyacridine] | 18 |  | Toxicity (3 cell lines): 33.1 µM
10 | COc1cc(NC(C)CCCN)c2ncccc2c1 (stereo not drawn) [compound 3, Primaquine] | 850 | very low inhibitory activity | inhibition of IFNb production, effectiveness in words [1]: less effective by about one log order
11 | NCCCCNc1c2ccccc2nc2ccccc12 [compound 21] | 1 |  | Toxicity (3 cell lines): 16.0 µM
12 | COc1ccc2nc3cc(N)ccc3c(N(C)CCCN(C)Cc3ccncc3)c2c1 [compound 14] | 23 |  | Toxicity (3 cell lines): 27.4 µM
13 | CCN(CC)CCCC(C)Nc1c2ccc(Cl)cc2nc2ccc(OC)cc12 (stereo not drawn) [Quinacrine, quinacrine] |  | relatively potent inhibitors | IC50 [1, 3]: 3 to 25 µM
14 | CCN(CC)CCCC(C)Nc1c2ccc(Cl)cc2nc2ccc(OC)cc12 (stereo not drawn) [compound 4, quinacrine] | 13 |  | Toxicity (3 cell lines): 33.0 µM
15 | Nc1c2ccccc2nc2ccccc12 [compound 8] | 5 |  | 
16 | COc1ccc2nc3cc(Cl)ccc3c(N)c2c1 [compound 6, 9-amino-6-chloro-2-methoxyacridine] |  | relatively potent inhibitors | IC50 (cGAS): 32 µM; IC50 ([1]; THP-1, 16 h): 3 to 25 µM
17 | CN(C)c1ccc2cc3ccc(N(C)C)cc3nc2c1 [compound 20] | 8 |  | 
18 | COc1cc(NS(C)(=O)=O)ccc1Nc1c2ccccc2nc2ccccc12 [compound 12] | > 650 |  | 
19 | CCOc1ccc2nc3cc(N)ccc3c(N)c2c1 [compound 7] | 10 |  | 
